Activity calls are given as the source filed them. The rule behind the calls is not given here. *1 amine or outer side, *2 acyl side, *3 side chain or, on linkers, in order; H or OH if unused. Where a SMILES comes first, the peptide text is derived from it. Bridges are numbered along the chain shown (N, C = ends). [ ]: non-standard residue; d: D form. X5 = O=C(O)CCCCCCCCCCCCCCCCC(=O)NC(CCC(=O)NCCOCCOCC(=O)NCCOCCOCC(=O)NCCCCCCNC(=O)C(CCCCNC(=O)CCN1C(=O)CC([*:2])C1=O)NC(=O)CCN1C(=O)CC([*:1])C1=O)C(=O)O; Aib = CC(C)(N)C(=O)O
Legend:
[1] = biological target: T1, Glucagon-like peptide 1 receptor (Homo sapiens, UniProt P43220); assay: Agonist activity at human GLP-1R expressed in HEK293 cells assessed as stimulation of cAMP accumulation incubated for 20 mins in presence of 0% HSA; format: functional, cell-based
[2] = biological target: T1, Glucagon-like peptide 1 receptor; assay: Agonist activity at human GLP-1R expressed in HEK293 cells assessed as stimulation of cAMP accumulation incubated for 20 mins in presence of 4.4% HSA; format: functional, cell-based
[3] = biological target: T1, Glucagon-like peptide 1 receptor; assay: Ratio of EC50 for agonist activity at human GLP-1R expressed in HEK293 cells in presence of 4.4% HSA to EC50 for agonist activity at human GLP-1R expressed in HEK293 cells in presence of 0% HSA; format: cell-based
serum albumin = serum albumin (Homo sapiens, UniProt P02768); assay: Binding affinity to human serum albumin in PBS pH 7.4 at 100 ug/mL incubated for 2 hrs by LC-MS/MS analysis relative to control; format: ADME; details: at 100 µg/mL, read-out: PB (converted)
Mus musculus [4] = assay: Hypoglycemic activity in non-fasted db/db mouse assessed as decrease in blood glucose concentration at 25 nmol/kg, sc by OGTT method; format: functional, organism-based
Mus musculus [5] = assay: Reduction in body weight in C57BL/6 mouse model of diet induced obesity at 25 nmol/kg, sc BID for 1 week relative to control; format: functional; set-up: scale not given: the % may be the effect or the level left; details: time 1 weeks
Mus musculus [6] = assay: Reduction in food intake in C57BL/6 mouse model of diet induced obesity at 25 nmol/kg, sc BID for 1 week relative to control; format: functional, organism-based; details: time 1.0 weeks
Mus musculus [7] = assay: Reduction in fasted hyperglycemia in C57BL/6 mouse model of diet induced obesity at 25 nmol/kg, sc BID for 1 week relative to control; format: functional, organism-based; details: time 1.0 weeks
Mus musculus [8] = assay: Hypoglycemic activity in non-fasted db/db mouse assessed as duration of time during which decrease in blood glucose concentration is observed at 25 nmol/kg, sc by OGTT method; format: functional
Mus musculus [9] = assay: Reduction in body weight in C57BL/6 mouse model of diet induced obesity at 25 nmol/kg, sc dosed every 2 days for 1 week relative to control; format: functional; set-up: scale not given: the % may be the effect or the level left; details: time 1 weeks
Mus musculus [10] = assay: Reduction in fasted hyperglycemia in C57BL/6 mouse model of diet induced obesity at 25 nmol/kg, sc dosed every 2 days for 1 week relative to control; format: functional, organism-based; details: time 1.0 weeks
Mus musculus [11] = assay: Reduction in food intake in C57BL/6 mouse model of diet induced obesity at 25 nmol/kg, sc dosed every 2 days for 1 week relative to control; format: functional, organism-based; details: time 1.0 weeks

Sequence of serum albumin (P02768 whole entry): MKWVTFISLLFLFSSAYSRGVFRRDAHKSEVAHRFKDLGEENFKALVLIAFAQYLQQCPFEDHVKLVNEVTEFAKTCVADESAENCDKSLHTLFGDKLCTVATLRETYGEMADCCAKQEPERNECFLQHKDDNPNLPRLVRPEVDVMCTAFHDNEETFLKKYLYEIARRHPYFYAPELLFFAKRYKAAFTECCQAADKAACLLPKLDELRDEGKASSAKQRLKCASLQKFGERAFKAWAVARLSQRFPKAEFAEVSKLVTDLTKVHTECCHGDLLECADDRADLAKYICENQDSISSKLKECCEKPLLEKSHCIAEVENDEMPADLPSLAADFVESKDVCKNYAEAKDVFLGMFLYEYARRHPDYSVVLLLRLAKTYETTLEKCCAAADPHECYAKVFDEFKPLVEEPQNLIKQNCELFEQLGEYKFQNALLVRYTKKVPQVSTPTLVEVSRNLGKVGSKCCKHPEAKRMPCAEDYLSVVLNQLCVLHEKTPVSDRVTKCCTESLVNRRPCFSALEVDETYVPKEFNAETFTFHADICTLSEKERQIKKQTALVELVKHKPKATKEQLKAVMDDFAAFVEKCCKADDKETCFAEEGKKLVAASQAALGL
T1 sequence (P43220 whole entry): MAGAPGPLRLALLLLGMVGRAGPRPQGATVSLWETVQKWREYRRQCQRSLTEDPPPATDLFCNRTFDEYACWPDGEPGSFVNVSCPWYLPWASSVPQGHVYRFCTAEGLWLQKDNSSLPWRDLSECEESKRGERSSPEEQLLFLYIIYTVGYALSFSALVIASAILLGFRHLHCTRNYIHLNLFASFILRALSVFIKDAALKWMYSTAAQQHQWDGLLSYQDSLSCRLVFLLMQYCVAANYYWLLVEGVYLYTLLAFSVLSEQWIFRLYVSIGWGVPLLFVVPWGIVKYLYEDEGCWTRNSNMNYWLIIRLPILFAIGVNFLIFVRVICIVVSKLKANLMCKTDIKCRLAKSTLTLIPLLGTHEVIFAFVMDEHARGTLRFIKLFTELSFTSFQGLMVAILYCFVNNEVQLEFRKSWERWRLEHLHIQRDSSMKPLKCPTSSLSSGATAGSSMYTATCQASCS

EC50 [1]	EC50 [2]	Ratio EC50 [3]	fraction unbound at 2 h, 100 ug/mL (serum albumin)	Molecule	Activity (Mus musculus [4])	Activity (Mus musculus [5])	Activity (Mus musculus [6])	Activity (Mus musculus [7])	Time (Mus musculus [8])	Activity (Mus musculus [9])	Activity (Mus musculus [10])	Activity (Mus musculus [11])
0.059 nM	2.8 nM	47.5	0.074	CC[C@H](C)[C@H](NC(=O)[C@H](CC(C)C)NC(=O)[C@H](Cc1c[nH]c2ccccc12)NC(=O)[C@H](CCC(=O)O)NC(=O)[C@@H](NC(=O)[C@H](Cc1ccccc1)NC(=O)[C@@H]1CSC2CC(=O)N(CCC(=O)NC(C(=O)NCCCCCCNC(=O)COCCOCCNC(=O)CCC(NC(=O)CCCCCCCCCCCCCCCCC(=O)O)C(=O)O)CCCCNC(=O)CCN3C(=O)CC(SC[C@H](NC(=O)[C@H](Cc4ccc(O)cc4)NC(=O)[C@H](CCC(=O)O)NC(=O)[C@@H](NC(=O)[C@@H](NC(=O)[C@H](CC(=O)O)NC(=O)[C@H](CC(N)=O)NC(=O)[C@@H](NC(=O)[C@H](Cc4ccc(O)cc4)NC(=O)[C@@H](NC(=O)CNC(=O)[C@H](CCC(=O)O)NC(=O)C(C)(C)NC(=O)[C@@H](N)Cc4c[nH]cn4)[C@@H](C)O)[C@@H](C)O)C(C)C)[C@@H](C)O)C(=O)N[C@@H](CCC(=O)O)C(=O)N[C@@H](CCC(=O)O)C(=O)N[C@@H](CCC(=O)O)C(=O)N[C@@H](C)C(=O)N[C@@H](C)C(=O)N[C@@H](CCCCN)C(=O)N1)C3=O)C2=O)[C@@H](C)CC)C(=O)N[C@@H](CCCCN)C(=O)NCC(=O)N[C@@H](CCCCN)C(N)=O (some centres not stated) (HELM PEPTIDE1{H.[Aib].E.G.T.Y.T.N.D.V.T.E.Y.C.E.E.E.A.A.K.C.F.I.E.W.L.I.K.G.K.[am]}|CHEM1{[O=C(O)CCCCCCCCCCCCCCCCC(=O)NC(CCC(=O)NCCOCCOCC(=O)NCCCCCCNC(=O)C(CCCCNC(=O)CCN1C(=O)CC([*:1])C1=O)NC(=O)CCN1C(=O)CC([*:2])C1=O)C(=O)O]}$PEPTIDE1,CHEM1,14:R3-1:R1|PEPTIDE1,CHEM1,21:R3-1:R2$$$V2.0)	Active				24 h	9.8%	Active	Active
0.069 nM	3.8 nM	55.1	0.084	CC[C@H](C)[C@@H]1NC(=O)[C@H](CC(C)C)NC(=O)[C@H](Cc2c[nH]c3ccccc23)NC(=O)[C@H](CCC(=O)O)NC(=O)[C@H]([C@@H](C)CC)NC(=O)[C@H](Cc2ccccc2)NC(=O)[C@@H](NC(=O)[C@H](CCCCN)NC(=O)[C@H](C)NC(=O)[C@H](C)NC(=O)[C@H](CCC(=O)O)NC(=O)[C@H](CCC(=O)O)NC(=O)[C@H](CCC(=O)O)NC(=O)[C@H](CC(C)C)NC(=O)[C@H](Cc2ccc(O)cc2)NC(=O)[C@H](CCC(=O)O)NC(=O)[C@@H](NC(=O)[C@@H](NC(=O)[C@H](CC(=O)O)NC(=O)[C@H](CC(N)=O)NC(=O)[C@@H](NC(=O)[C@H](Cc2ccc(O)cc2)NC(=O)[C@@H](NC(=O)CNC(=O)[C@H](CCC(=O)O)NC(=O)C(C)(C)NC(=O)[C@@H](N)Cc2c[nH]cn2)[C@@H](C)O)[C@@H](C)O)C(C)C)[C@@H](C)O)CSC2CC(=O)N(CCC(=O)NC(C(=O)NCCCCCCNC(=O)COCCOCCNC(=O)CCC(NC(=O)CCCCCCCCCCCCCCCCC(=O)O)C(=O)O)CCCCNC(=O)CCN3C(=O)CC(SC[C@@H](C(=O)NCC(=O)N[C@@H](CCCCN)C(N)=O)NC1=O)C3=O)C2=O (some centres not stated) (HELM PEPTIDE1{H.[Aib].E.G.T.Y.T.N.D.V.T.E.Y.L.E.E.E.A.A.K.C.F.I.E.W.L.I.C.G.K.[am]}|CHEM1{[O=C(O)CCCCCCCCCCCCCCCCC(=O)NC(CCC(=O)NCCOCCOCC(=O)NCCCCCCNC(=O)C(CCCCNC(=O)CCN1C(=O)CC([*:2])C1=O)NC(=O)CCN1C(=O)CC([*:1])C1=O)C(=O)O]}$PEPTIDE1,CHEM1,21:R3-1:R1|PEPTIDE1,CHEM1,28:R3-1:R2$$$V2.0)	Active				24 h	13.4%	Active	Active

Continued, molecule first:

Molecule	EC50 [1]	EC50 [2]	Ratio EC50 [3]	fraction unbound at 2 h, 100 ug/mL (serum albumin)	Activity (Mus musculus [4])	Activity (Mus musculus [5])	Activity (Mus musculus [6])	Activity (Mus musculus [7])	Time (Mus musculus [8])	Activity (Mus musculus [9])	Activity (Mus musculus [10])	Activity (Mus musculus [11])
CCCCCCCCCCCCCCCC(=O)NCCCCCCNC(=O)C1CCCCNC(=O)CCN2C(=O)CC(SC[C@H](NC(=O)[C@H](Cc3ccc(O)cc3)NC(=O)[C@H](CCC(=O)O)NC(=O)[C@@H](NC(=O)[C@@H](NC(=O)[C@H](CC(=O)O)NC(=O)[C@H](CC(N)=O)NC(=O)[C@@H](NC(=O)[C@H](Cc3ccc(O)cc3)NC(=O)[C@@H](NC(=O)CNC(=O)[C@H](CCC(=O)O)NC(=O)C(C)(C)NC(=O)[C@@H](N)Cc3c[nH]cn3)[C@@H](C)O)[C@@H](C)O)C(C)C)[C@@H](C)O)C(=O)N[C@@H](CCC(=O)O)C(=O)N[C@@H](CCC(=O)O)C(=O)N[C@@H](CCC(=O)O)C(=O)N[C@@H](C)C(=O)N[C@@H](C)C(=O)N[C@@H](CCCCN)C(=O)N[C@H](C(=O)N[C@@H](Cc3ccccc3)C(=O)N[C@H](C(=O)N[C@@H](CCC(=O)O)C(=O)N[C@@H](Cc3c[nH]c4ccccc34)C(=O)N[C@@H](CC(C)C)C(=O)N[C@H](C(=O)N[C@@H](CCCCN)C(=O)NCC(=O)N[C@@H](CCCCN)C(=O)N3CCC[C@H]3C(=O)N[C@@H](CO)C(=O)N[C@@H](CO)C(=O)NCC(=O)N[C@@H](C)C(=O)N3CCC[C@H]3C(=O)N3CCC[C@H]3C(=O)N3CCC[C@H]3C(=O)N[C@@H](CO)C(N)=O)[C@@H](C)CC)[C@@H](C)CC)CSC3CC(=O)N(CCC(=O)N1)C3=O)C2=O (some centres not stated) (HELM PEPTIDE1{H.[Aib].E.G.T.Y.T.N.D.V.T.E.Y.C.E.E.E.A.A.K.C.F.I.E.W.L.I.K.G.K.P.S.S.G.A.P.P.P.S.[am]}|CHEM1{[CCCCCCCCCCCCCCCC(=O)NCCCCCCNC(=O)C(CCCCNC(=O)CCN1C(=O)CC([*:1])C1=O)NC(=O)CCN1C(=O)CC([*:2])C1=O]}$PEPTIDE1,CHEM1,14:R3-1:R1|PEPTIDE1,CHEM1,21:R3-1:R2$$$V2.0)	0.041 nM	0.91 nM	22.2	0.162	Active	14.4%	Active	Active				
CC[C@H](C)[C@H](NC(=O)[C@H](CC(C)C)NC(=O)[C@H](Cc1c[nH]c2ccccc12)NC(=O)[C@H](CCC(=O)O)NC(=O)[C@@H](NC(=O)[C@H](Cc1ccccc1)NC(=O)[C@@H]1CSC2CC(=O)N(CCC(=O)NC(C(=O)NCCCCCCNC(=O)COCCOCCNC(=O)COCCOCCNC(=O)CCC(NC(=O)CCCCCCCCCCCCCCCCC(=O)O)C(=O)O)CCCCNC(=O)CCN3C(=O)CC(SC[C@H](NC(=O)[C@H](Cc4ccc(O)cc4)NC(=O)[C@H](CCC(=O)O)NC(=O)[C@@H](NC(=O)[C@@H](NC(=O)[C@H](CC(=O)O)NC(=O)[C@H](CC(N)=O)NC(=O)[C@@H](NC(=O)[C@H](Cc4ccc(O)cc4)NC(=O)[C@@H](NC(=O)CNC(=O)[C@H](CCC(=O)O)NC(=O)C(C)(C)NC(=O)[C@@H](N)Cc4c[nH]cn4)[C@@H](C)O)[C@@H](C)O)C(C)C)[C@@H](C)O)C(=O)N[C@@H](CCC(=O)O)C(=O)N[C@@H](CCC(=O)O)C(=O)N[C@@H](CCC(=O)O)C(=O)N[C@@H](C)C(=O)N[C@@H](C)C(=O)N[C@@H](CCCCN)C(=O)N1)C3=O)C2=O)[C@@H](C)CC)C(=O)N[C@@H](CCCCN)C(=O)NCC(=O)N[C@@H](CCCCN)C(=O)N1CCC[C@H]1C(=O)N[C@@H](CO)C(=O)N[C@@H](CO)C(=O)NCC(=O)N[C@@H](C)C(=O)N1CCC[C@H]1C(=O)N1CCC[C@H]1C(=O)N1CCC[C@H]1C(=O)N[C@@H](CO)C(N)=O (some centres not stated) (HELM PEPTIDE1{H.[Aib].E.G.T.Y.T.N.D.V.T.E.Y.C.E.E.E.A.A.K.C.F.I.E.W.L.I.K.G.K.P.S.S.G.A.P.P.P.S.[am]}|CHEM1{[O=C(O)CCCCCCCCCCCCCCCCC(=O)NC(CCC(=O)NCCOCCOCC(=O)NCCOCCOCC(=O)NCCCCCCNC(=O)C(CCCCNC(=O)CCN1C(=O)CC([*:1])C1=O)NC(=O)CCN1C(=O)CC([*:2])C1=O)C(=O)O]}$PEPTIDE1,CHEM1,14:R3-1:R1|PEPTIDE1,CHEM1,21:R3-1:R2$$$V2.0)	0.025 nM	2.7 nM	108	0.047	Active				24 h	13.8%	Active	
H-H[Aib]EGTYTNDVTEYLEEEAAKCFIEWLICGKPSSGAPPSKKKKKK-NH2 (linker 21-28 via X5)	0.034 nM	2.7 nM	79.4	0.033	Active				24 h	10.6%	Active	
